From the kinase profiling compilation of Christmann-Franck et al. (2016)
Each block holds one molecule with its values, some of them ahead of it.

What was measured:
Assay in all cases: KINOMEscan competition binding
Conditions in all cases: compound 10.0 µM
[1] = system: ABL1 (human), P00519 [E255K]
[2] = system: ABL1 (human), P00519 [F317I]
ABL2 (human) = ABL2 (human) (UniProt P42684)
AURKA (human) = AURKA (human) (UniProt O14965)
BMPR2 (human) = BMPR2 (human) (UniProt Q13873)
CAMK2A (human) = CAMK2A (human) (UniProt Q9UQM7)
CDC42BPB (human) = CDC42BPB (human) (UniProt Q9Y5S2)
CDK14 (human) = CDK14 (human) (UniProt O94921)
CDK3 (human) = CDK3 (human) (UniProt Q00526)
CSNK1G2 (human) = CSNK1G2 (human) (UniProt P78368)
[3] = system: EGFR (human), P00533 [P753S; 747-752 del]
EPHA5 (human) = EPHA5 (human) (UniProt P54756)
Sequence of EPHA5 (human) (P54756 whole entry, looked up): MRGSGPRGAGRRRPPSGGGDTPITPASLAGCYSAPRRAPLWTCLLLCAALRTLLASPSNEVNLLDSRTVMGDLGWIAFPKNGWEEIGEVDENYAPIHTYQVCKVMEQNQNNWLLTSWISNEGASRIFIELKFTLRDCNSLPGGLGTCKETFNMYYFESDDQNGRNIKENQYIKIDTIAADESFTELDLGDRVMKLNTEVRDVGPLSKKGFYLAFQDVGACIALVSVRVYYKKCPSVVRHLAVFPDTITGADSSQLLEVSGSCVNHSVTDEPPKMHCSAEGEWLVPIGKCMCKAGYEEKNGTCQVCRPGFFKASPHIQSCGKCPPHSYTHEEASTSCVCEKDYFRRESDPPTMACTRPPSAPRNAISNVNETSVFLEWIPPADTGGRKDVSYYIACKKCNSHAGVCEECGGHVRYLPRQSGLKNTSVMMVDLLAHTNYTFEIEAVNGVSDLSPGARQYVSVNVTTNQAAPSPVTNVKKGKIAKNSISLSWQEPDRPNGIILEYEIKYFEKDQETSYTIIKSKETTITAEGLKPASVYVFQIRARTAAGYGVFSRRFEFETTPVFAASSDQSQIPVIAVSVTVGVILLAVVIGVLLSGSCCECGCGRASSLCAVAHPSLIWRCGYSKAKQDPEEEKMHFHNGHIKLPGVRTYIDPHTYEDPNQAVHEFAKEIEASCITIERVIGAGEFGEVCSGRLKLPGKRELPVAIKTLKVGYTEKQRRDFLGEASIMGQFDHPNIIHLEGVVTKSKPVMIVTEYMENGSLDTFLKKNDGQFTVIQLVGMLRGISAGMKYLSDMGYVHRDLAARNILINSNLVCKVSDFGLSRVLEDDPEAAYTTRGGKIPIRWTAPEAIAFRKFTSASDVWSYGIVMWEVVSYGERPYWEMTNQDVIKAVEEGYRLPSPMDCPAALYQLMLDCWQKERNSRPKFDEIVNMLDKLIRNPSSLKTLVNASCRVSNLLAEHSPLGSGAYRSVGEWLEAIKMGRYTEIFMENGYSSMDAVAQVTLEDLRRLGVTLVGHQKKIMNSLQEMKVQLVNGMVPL

EPHB1 (human) = EPHB1 (human) (UniProt P54762)
Sequence of EPHB1 (human) (P54762 whole entry, looked up): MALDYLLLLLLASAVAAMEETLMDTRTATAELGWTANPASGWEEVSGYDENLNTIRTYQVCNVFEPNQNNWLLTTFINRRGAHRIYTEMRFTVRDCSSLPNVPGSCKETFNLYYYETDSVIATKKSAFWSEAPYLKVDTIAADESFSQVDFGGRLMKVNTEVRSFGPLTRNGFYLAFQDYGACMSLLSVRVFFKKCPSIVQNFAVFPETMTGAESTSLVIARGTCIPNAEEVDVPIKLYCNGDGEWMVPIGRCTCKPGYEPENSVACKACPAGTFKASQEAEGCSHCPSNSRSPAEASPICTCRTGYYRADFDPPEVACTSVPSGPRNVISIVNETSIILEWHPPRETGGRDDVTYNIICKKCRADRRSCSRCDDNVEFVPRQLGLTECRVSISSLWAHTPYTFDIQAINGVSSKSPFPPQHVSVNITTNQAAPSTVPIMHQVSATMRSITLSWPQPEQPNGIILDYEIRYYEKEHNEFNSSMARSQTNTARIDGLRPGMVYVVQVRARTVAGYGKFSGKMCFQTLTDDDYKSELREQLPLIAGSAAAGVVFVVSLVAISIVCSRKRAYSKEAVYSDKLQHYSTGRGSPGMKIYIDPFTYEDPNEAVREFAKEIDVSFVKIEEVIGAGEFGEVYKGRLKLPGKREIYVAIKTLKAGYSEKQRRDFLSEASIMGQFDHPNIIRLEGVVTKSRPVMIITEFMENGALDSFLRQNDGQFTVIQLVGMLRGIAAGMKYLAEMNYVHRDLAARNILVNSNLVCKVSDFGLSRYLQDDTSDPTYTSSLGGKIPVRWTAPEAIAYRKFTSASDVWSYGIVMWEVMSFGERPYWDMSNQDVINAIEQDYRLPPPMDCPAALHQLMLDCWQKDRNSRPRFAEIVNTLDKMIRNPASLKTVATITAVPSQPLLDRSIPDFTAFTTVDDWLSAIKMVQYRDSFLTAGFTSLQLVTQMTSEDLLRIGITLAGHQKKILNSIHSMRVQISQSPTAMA

FGR (human) = FGR (human) (UniProt P09769)
GSK3B (human) = GSK3B (human) (UniProt P49841)
Sequence of GSK3B (human) (P49841 whole entry, looked up): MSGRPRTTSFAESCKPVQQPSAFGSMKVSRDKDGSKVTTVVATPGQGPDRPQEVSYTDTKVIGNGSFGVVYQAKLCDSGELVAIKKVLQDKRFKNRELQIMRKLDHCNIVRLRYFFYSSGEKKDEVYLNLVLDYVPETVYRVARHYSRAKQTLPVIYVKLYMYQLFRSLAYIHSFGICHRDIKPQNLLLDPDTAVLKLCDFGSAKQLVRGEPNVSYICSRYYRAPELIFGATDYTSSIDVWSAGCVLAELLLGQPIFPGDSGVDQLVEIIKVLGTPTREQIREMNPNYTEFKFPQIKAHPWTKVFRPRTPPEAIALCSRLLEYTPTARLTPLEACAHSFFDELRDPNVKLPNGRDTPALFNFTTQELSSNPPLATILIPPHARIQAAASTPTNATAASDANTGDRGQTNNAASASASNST

IKBKB (human) = IKBKB (human) (UniProt O14920)
INSR (human) = INSR (human) (UniProt P06213)
[4] = target: JAK1 JH1 catalytic (human) (UniProt P23458)
LATS1 (human) = LATS1 (human) (UniProt O95835)
MAP3K10 (human) = MAP3K10 (human) (UniProt Q02779)
MAP3K4 (human) = MAP3K4 (human) (UniProt Q9Y6R4)
MAP3K9 (human) = MAP3K9 (human) (UniProt P80192)
MAPK1 (human) = MAPK1 (human) (UniProt P28482)
MAPK10 (human) = MAPK10 (human) (UniProt P53779)
MAPK12 (human) = MAPK12 (human) (UniProt P53778)
Sequence of MAPK12 (human) (P53778 whole entry, looked up): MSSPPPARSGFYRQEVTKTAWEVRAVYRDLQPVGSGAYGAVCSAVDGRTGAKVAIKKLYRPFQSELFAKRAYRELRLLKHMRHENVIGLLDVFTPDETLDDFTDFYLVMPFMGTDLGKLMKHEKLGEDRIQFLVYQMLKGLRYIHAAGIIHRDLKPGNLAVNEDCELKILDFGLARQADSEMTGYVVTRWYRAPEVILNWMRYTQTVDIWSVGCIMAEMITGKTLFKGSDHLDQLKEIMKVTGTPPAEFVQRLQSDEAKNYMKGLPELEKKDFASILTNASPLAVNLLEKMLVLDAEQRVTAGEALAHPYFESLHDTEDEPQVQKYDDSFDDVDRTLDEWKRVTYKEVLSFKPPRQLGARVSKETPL

MAPK14 (human) = MAPK14 (human) (UniProt Q16539)
Sequence of MAPK14 (human) (Q16539 whole entry, looked up): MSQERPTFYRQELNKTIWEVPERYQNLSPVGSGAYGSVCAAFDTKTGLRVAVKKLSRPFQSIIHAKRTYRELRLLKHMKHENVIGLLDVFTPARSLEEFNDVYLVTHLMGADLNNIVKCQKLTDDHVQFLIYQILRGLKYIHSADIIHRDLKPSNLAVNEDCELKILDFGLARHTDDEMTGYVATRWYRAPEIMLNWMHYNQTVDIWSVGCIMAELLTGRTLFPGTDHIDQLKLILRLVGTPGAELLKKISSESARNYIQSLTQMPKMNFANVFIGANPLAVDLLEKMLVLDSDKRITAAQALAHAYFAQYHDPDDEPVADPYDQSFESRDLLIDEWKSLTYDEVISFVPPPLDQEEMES

NTRK3 (human) = NTRK3 (human) (UniProt Q16288)
PKMYT1 (human) = PKMYT1 (human) (UniProt Q99640)
PRKCQ (human) = PRKCQ (human) (UniProt Q04759)
PRKG1 (human) = PRKG1 (human) (UniProt Q13976)
RET (human) = RET (human) (UniProt P07949)
RPS6KA1 KD1 (human) = RPS6KA1 KD1 (human) (UniProt Q15418)
SIK1 (human) = SIK1 (human) (UniProt P57059)
SIK2 (human) = SIK2 (human) (UniProt Q9H0K1)
SLK (human) = SLK (human) (UniProt Q9H2G2)
SRMS (human) = SRMS (human) (UniProt Q9H3Y6)
Sequence of SRMS (human) (Q9H3Y6 whole entry, looked up): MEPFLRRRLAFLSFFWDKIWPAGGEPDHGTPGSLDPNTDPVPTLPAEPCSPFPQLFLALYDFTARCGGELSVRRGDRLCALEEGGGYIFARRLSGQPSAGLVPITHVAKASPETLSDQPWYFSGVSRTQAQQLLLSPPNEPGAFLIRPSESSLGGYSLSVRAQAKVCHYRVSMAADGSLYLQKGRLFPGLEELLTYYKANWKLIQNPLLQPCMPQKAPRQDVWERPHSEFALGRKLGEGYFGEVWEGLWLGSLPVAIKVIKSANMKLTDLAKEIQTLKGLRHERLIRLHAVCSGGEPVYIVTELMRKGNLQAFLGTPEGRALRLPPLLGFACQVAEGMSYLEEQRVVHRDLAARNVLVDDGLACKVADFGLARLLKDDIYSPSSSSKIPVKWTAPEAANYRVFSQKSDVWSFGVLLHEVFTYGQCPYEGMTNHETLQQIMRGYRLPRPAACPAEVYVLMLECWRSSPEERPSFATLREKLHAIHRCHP

STK35 (human) = STK35 (human) (UniProt Q8TDR2)
SYK (human) = SYK (human) (UniProt P43405)
TEK (human) = TEK (human) (UniProt Q02763)
TESK1 (human) = TESK1 (human) (UniProt Q15569)
TNNI3K (human) = TNNI3K (human) (UniProt Q59H18)
[5] = target: TYK2 JH1 catalytic (human) (UniProt P29597)

Sequence of ABL1 (human), P00519 [F317I] (P00519 whole entry F317I, looked up): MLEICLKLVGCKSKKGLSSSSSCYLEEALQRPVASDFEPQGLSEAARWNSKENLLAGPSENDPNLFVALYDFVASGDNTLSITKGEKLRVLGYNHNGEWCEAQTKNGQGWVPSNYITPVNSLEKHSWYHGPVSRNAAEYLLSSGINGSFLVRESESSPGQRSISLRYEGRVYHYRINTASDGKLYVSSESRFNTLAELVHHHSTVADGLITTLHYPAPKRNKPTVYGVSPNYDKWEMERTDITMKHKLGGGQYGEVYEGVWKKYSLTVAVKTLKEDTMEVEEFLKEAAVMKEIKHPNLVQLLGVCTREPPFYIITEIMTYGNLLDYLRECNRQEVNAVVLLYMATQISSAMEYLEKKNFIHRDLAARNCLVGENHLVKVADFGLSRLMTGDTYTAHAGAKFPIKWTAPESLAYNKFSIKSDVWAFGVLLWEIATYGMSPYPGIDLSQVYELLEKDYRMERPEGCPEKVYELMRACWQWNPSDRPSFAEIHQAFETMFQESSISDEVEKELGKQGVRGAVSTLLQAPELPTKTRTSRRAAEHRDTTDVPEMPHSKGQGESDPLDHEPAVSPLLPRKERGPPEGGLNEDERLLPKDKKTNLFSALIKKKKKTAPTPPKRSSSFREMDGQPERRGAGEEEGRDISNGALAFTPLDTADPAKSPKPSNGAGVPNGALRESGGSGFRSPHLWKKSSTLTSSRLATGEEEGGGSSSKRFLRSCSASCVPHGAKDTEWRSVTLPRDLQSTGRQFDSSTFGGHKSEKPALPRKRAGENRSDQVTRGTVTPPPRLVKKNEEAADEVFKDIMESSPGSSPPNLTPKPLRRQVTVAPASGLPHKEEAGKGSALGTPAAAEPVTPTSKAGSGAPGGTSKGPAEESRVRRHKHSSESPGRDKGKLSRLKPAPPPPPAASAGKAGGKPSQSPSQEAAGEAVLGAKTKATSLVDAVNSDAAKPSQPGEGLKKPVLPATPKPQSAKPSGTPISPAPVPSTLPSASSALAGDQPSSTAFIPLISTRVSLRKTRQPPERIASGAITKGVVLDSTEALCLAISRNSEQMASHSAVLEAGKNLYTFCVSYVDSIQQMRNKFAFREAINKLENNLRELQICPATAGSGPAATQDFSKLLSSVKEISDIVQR
Sequence of ABL1 (human), P00519 [E255K] (P00519 whole entry E255K, looked up): as the sequence (P00519 whole entry F317I, looked up) above, with E255K, I317F counted along it

kinase still bound, per cent of control [1]: 100%
kinase still bound, per cent of control [2]: 96%
kinase still bound, per cent of control (ABL2 (human)): 100%
kinase still bound, per cent of control (AURKA (human)): 96%
kinase still bound, per cent of control (BMPR2 (human)): 100%
kinase still bound, per cent of control (CAMK2A (human)): 100%
kinase still bound, per cent of control (CDC42BPB (human)): 98%
kinase still bound, per cent of control (CDK14 (human)): 100%
kinase still bound, per cent of control (CDK3 (human)): 100%
kinase still bound, per cent of control (CSNK1G2 (human)): 100%
kinase still bound, per cent of control [3]: 100%
kinase still bound, per cent of control (EPHA5 (human)): 100%
kinase still bound, per cent of control (EPHB1 (human)): 100%
kinase still bound, per cent of control (FGR (human)): 100%
kinase still bound, per cent of control (GSK3B (human)): 79%
kinase still bound, per cent of control (IKBKB (human)): 100%
kinase still bound, per cent of control (INSR (human)): 100%
kinase still bound, per cent of control [4]: 100%
kinase still bound, per cent of control (LATS1 (human)): 88%
kinase still bound, per cent of control (MAP3K10 (human)): 99%
kinase still bound, per cent of control (MAP3K4 (human)): 100%
kinase still bound, per cent of control (MAP3K9 (human)): 100%
kinase still bound, per cent of control (MAPK1 (human)): 100%
kinase still bound, per cent of control (MAPK10 (human)): 93%
kinase still bound, per cent of control (MAPK12 (human)): 98%
kinase still bound, per cent of control (MAPK14 (human)): 100%
kinase still bound, per cent of control (NTRK3 (human)): 84%
kinase still bound, per cent of control (PKMYT1 (human)): 93%
kinase still bound, per cent of control (PRKCQ (human)): 100%
kinase still bound, per cent of control (PRKG1 (human)): 100%
kinase still bound, per cent of control (RET (human)): 100%
kinase still bound, per cent of control (RPS6KA1 KD1 (human)): 93%
kinase still bound, per cent of control (SIK1 (human)): 100%
kinase still bound, per cent of control (SIK2 (human)): 78%
kinase still bound, per cent of control (SLK (human)): 100%
kinase still bound, per cent of control (SRMS (human)): 96%
kinase still bound, per cent of control (STK35 (human)): 100%
kinase still bound, per cent of control (SYK (human)): 100%
kinase still bound, per cent of control (TEK (human)): 100%
kinase still bound, per cent of control (TESK1 (human)): 91%
kinase still bound, per cent of control (TNNI3K (human)): 100%
kinase still bound, per cent of control [5]: 44%
Compound: CN1CCN(c2ccc(C(=O)Nc3ncc4c(n3)N(C)c3ccccc3C(=O)N4C)cc2)CC1

kinase still bound, per cent of control [1]: 85%
kinase still bound, per cent of control [2]: 6.6%
kinase still bound, per cent of control (ABL2 (human)): 92%
kinase still bound, per cent of control (AURKA (human)): 75%
kinase still bound, per cent of control (BMPR2 (human)): 100%
kinase still bound, per cent of control (CAMK2A (human)): 44%
kinase still bound, per cent of control (CDC42BPB (human)): 99%
kinase still bound, per cent of control (CDK14 (human)): 96%
kinase still bound, per cent of control (CDK3 (human)): 100%
kinase still bound, per cent of control (CSNK1G2 (human)): 87%
kinase still bound, per cent of control [3]: 82%
kinase still bound, per cent of control (EPHA5 (human)): 80%
kinase still bound, per cent of control (EPHB1 (human)): 88%
kinase still bound, per cent of control (FGR (human)): 98%
kinase still bound, per cent of control (GSK3B (human)): 97%
kinase still bound, per cent of control (IKBKB (human)): 65%
kinase still bound, per cent of control (INSR (human)): 100%
kinase still bound, per cent of control [4]: 100%
kinase still bound, per cent of control (LATS1 (human)): 79%
kinase still bound, per cent of control (MAP3K10 (human)): 97%
kinase still bound, per cent of control (MAP3K4 (human)): 71%
kinase still bound, per cent of control (MAP3K9 (human)): 100%
kinase still bound, per cent of control (MAPK1 (human)): 83%
kinase still bound, per cent of control (MAPK10 (human)): 70%
kinase still bound, per cent of control (MAPK12 (human)): 76%
kinase still bound, per cent of control (MAPK14 (human)): 82%
kinase still bound, per cent of control (NTRK3 (human)): 68%
kinase still bound, per cent of control (PKMYT1 (human)): 92%
kinase still bound, per cent of control (PRKCQ (human)): 92%
kinase still bound, per cent of control (PRKG1 (human)): 100%
kinase still bound, per cent of control (RET (human)): 85%
kinase still bound, per cent of control (RPS6KA1 KD1 (human)): 92%
kinase still bound, per cent of control (SIK1 (human)): 81%
kinase still bound, per cent of control (SIK2 (human)): 87%
kinase still bound, per cent of control (SLK (human)): 87%
kinase still bound, per cent of control (SRMS (human)): 76%
kinase still bound, per cent of control (STK35 (human)): 89%
kinase still bound, per cent of control (SYK (human)): 100%
kinase still bound, per cent of control (TEK (human)): 88%
kinase still bound, per cent of control (TESK1 (human)): 90%
kinase still bound, per cent of control (TNNI3K (human)): 84%
kinase still bound, per cent of control [5]: 62%
Compound: COc1cc(N2CCN(C)CC2)ccc1Nc1ncc2c(n1)N(C)c1sccc1C(=O)N2C

kinase still bound, per cent of control [1]: 19%
kinase still bound, per cent of control [2]: 65%
kinase still bound, per cent of control (ABL2 (human)): 79%
kinase still bound, per cent of control (AURKA (human)): 78%
kinase still bound, per cent of control (BMPR2 (human)): 100%
kinase still bound, per cent of control (CAMK2A (human)): 90%
kinase still bound, per cent of control (CDC42BPB (human)): 100%
kinase still bound, per cent of control (CDK14 (human)): 100%
kinase still bound, per cent of control (CDK3 (human)): 85%
kinase still bound, per cent of control (CSNK1G2 (human)): 92%
kinase still bound, per cent of control [3]: 39%
kinase still bound, per cent of control (EPHA5 (human)): 90%
kinase still bound, per cent of control (EPHB1 (human)): 96%
kinase still bound, per cent of control (FGR (human)): 73%
kinase still bound, per cent of control (GSK3B (human)): 53%
kinase still bound, per cent of control (IKBKB (human)): 100%
kinase still bound, per cent of control (INSR (human)): 69%
kinase still bound, per cent of control [4]: 50%
kinase still bound, per cent of control (LATS1 (human)): 90%
kinase still bound, per cent of control (MAP3K10 (human)): 100%
kinase still bound, per cent of control (MAP3K4 (human)): 95%
kinase still bound, per cent of control (MAP3K9 (human)): 82%
kinase still bound, per cent of control (MAPK1 (human)): 94%
kinase still bound, per cent of control (MAPK10 (human)): 58%
kinase still bound, per cent of control (MAPK12 (human)): 81%
kinase still bound, per cent of control (MAPK14 (human)): 100%
kinase still bound, per cent of control (NTRK3 (human)): 2.1%
kinase still bound, per cent of control (PKMYT1 (human)): 100%
kinase still bound, per cent of control (PRKCQ (human)): 59%
kinase still bound, per cent of control (PRKG1 (human)): 100%
kinase still bound, per cent of control (RET (human)): 95%
kinase still bound, per cent of control (RPS6KA1 KD1 (human)): 96%
kinase still bound, per cent of control (SIK1 (human)): 27%
kinase still bound, per cent of control (SIK2 (human)): 82%
kinase still bound, per cent of control (SLK (human)): 100%
kinase still bound, per cent of control (SRMS (human)): 0%
kinase still bound, per cent of control (STK35 (human)): 100%
kinase still bound, per cent of control (SYK (human)): 91%
kinase still bound, per cent of control (TEK (human)): 100%
kinase still bound, per cent of control (TESK1 (human)): 100%
kinase still bound, per cent of control (TNNI3K (human)): 87%
kinase still bound, per cent of control [5]: 66%
Compound: COc1cc(N2CCN(C)CC2)ccc1Nc1ncc2c(n1)Nc1ccccc1NC2=O
